Data on one compound can be found in ChEMBL document CHEMBL6078723, “Novel steroidal β-carboline derivatives as promising antibacterial candidates against methicillin-resistant Staphylococcus aureus” (Eur J Med Chem, 2025).

Molecules are shown by their SMILES. Calls of active or inactive are those of the source. The rule behind the calls is not given here.

The test system of assay [1] is Staphylococcus aureus. Description: Induction of loss of membrane integrity in Staphylococcus aureus CGMCC1.8721 assessed as protein leakage. The class given is functional, organism-based.
Assay [2] relates to Staphylococcus aureus. Kind of assay: Antibacterial activity against methicillin-resistant Staphylococcus aureus ATCC 43300 at pH 6.5 (reference value: 0.5 ug/ml). The class given is functional.
Assay [3] deals with Staphylococcus aureus. Description: Antibacterial activity against methicillin-resistant Staphylococcus aureus CGMCC1.12409 infected in mouse model assessed as reduction in abscesses in subcutaneous tissues at 10 mg/kg measured for 5 days. The conditions noted are these: time 5.0 day. The class given is functional, organism-based.
Assay [4] has as its system Staphylococcus aureus. Kind of assay: Antibacterial activity against methicillin-resistant Staphylococcus aureus CGMCC1.12409 in presence of Ca2+ (reference value: 0.5 ug/ml). It is filed as functional.

With `COc1ccc2[nH]c3c(CC[C@H](C)[C@H]4CC[C@H]5[C@@H]6[C@H](O)C[C@@H]7C[C@H](O)CC[C@]7(C)[C@H]6C[C@H](O)[C@]45C)[n+](Cc4ccc(Cl)cc4)ccc3c2c1.[Br-]`, the Activity result in the assay with Staphylococcus aureus [1] was “Dose-dependent-effect”. Further, the minimal inhibitory concentration (MIC) was determined as 0.5 µg/mL in the assay with Staphylococcus aureus [2] and 1 µg/mL with Staphylococcus aureus [4]. For the same compound, the result in the assay on Staphylococcus aureus [3] was Active.
